Where two headings read alike, the source gives them in different places.
Tested on: test plant species in Direct Seeded Rice
Assay: Postemergence herbicidal activity in direct seeded rice (Table 13)
Assay type: in vivo
Conditions: for GR50 BRAPP / GR80 BRAPP / GR50 CYPSS / GR80 CYPSS / GR50 ECHSS / GR80 ECHSS / GR50 LEFSS / GR80 LEFSS / GR20 ORYSS / GR50 SCPJU / GR80 SCPJU / GR50 SEBEX / GR80 SEBEX: probit analysis; for GR20 ORYSS: ORYSS: Oryza sativa (crop); for pest or weed control at 35 g/ha / pest or weed control at 70 g/ha: post-emergence, 504 h
Source text: Seeds or nutlets of the desired test plant species were planted in a soil matrix prepared by mixing a loam soil (43 percent silt, 19 percent clay, and 38 percent sand, with a pH of about 8.1 and an organic matter content of about 1.5 percent) and river sand in an 80 to 20 ratio. The soil matrix was contained in plastic pots with a surface area of 139.7 cm^2. When required to ensure good germination and healthy plants, a fungicide treatment and/or other chemical or physical treatment was applied. The plants were grown for 10-17 d in a greenhouse with an approximate 14-h photoperiod which was maintained at about 29° C. during the day and 26° C. during the night. Nutrients and water were added on a regular basis and supplemental lighting was provided with overhead metal halide 1000-Watt lamps as necessary. The plants were employed for testing when they reached the second or third true leaf stage. A weighed amount, determined by the highest rate to be tested, of each test compound was placed in 25 mL glass vials and dissolved in a volume of 97:3 v/v acetone-DMSO to obtain 12× stock solutions. […] The concentrated stock solutions were added to the spray solutions so that the final acetone and DMSO concentrations were 16.2% and 0.5%, respectively. Spray solutions were diluted to the appropriate final concentrations with the addition of 10 mL of an aqueous mixture of 1.5% (v/v) Agri-dex crop oil concentrate. […] Compound requirements are based upon a 12 mL application volume at a rate of 187 L/ha. Formulated compounds were applied to the plant material with an overhead Mandel track sprayer equipped with […] nozzles calibrated to deliver 187 L/ha over an application area of 0.503 square meters (m^2) at a spray height of 18 inches (43 cm) above average plant canopy height. Control plants were sprayed in the same manner with the solvent blank. The treated plants and control plants were placed in a greenhouse as described above and watered by sub-irrigation to prevent wash-off of the test compounds. After 20-22 days, the condition of the test plants, compared with that of the untreated plants, was determined visually and scored on a scale of 0 to 100 percent where 0 corresponds to no injury and 100 corresponds to complete kill. By applying the well-accepted probit analysis as described by J. Berkson in Journal of the American Statistical Society, 48, 565 (1953) and by D. Finney in “Probit Analysis” Cambridge University Press (1952), the above data can be used to calculate GR20, GR50, GR80 and GR90 values, which are defined as growth reduction factors that correspond to the effective dose of herbicide required to kill or control 20 percent, 50 percent, 80 percent or 90 percent, respectively, of a target plant.

[1] = BRAPP: broadleaf signalgrass, Brachiaria platyphylla
[2] = CYPSS: sedge (Cyperus difformis, esculentus, iria)
[3] = ECHSS: barnyardgrass (Echinochloa crus-galli), junglerice (Echinochloa colonum)
[4] = LEFSS: sprangletop (Leptochloa chinensis, Leptochloa dubia)
[5] = SCPJU: Japanese bulrush, Scirpus juncoides
[6] = SEBEX: hemp sesbania, Sesbania exaltata
[7] = BRAPP: broadleaf signalgrass, Brachiaria platyphylla, 35 g ai/ha, read-out: Visual Growth Reduction (%) 21 Days After Application BRAPP
[8] = BRAPP: broadleaf signalgrass, Brachiaria platyphylla, 70 g ai/ha, read-out: Visual Growth Reduction (%) 21 Days After Application BRAPP
[9] = CYPSS: sedge (Cyperus difformis, esculentus, iria), 35 g ai/ha, read-out: Visual Growth Reduction (%) 21 Days After Application CYPSS
[10] = CYPSS: sedge (Cyperus difformis, esculentus, iria), 70 g ai/ha, read-out: Visual Growth Reduction (%) 21 Days After Application CYPSS
[11] = ECHSS: barnyardgrass (Echinochloa crus-galli), junglerice (Echinochloa colonum), 35 g ai/ha, read-out: Visual Growth Reduction (%) 21 Days After Application ECHSS
[12] = ECHSS: barnyardgrass (Echinochloa crus-galli), junglerice (Echinochloa colonum), 70 g ai/ha, read-out: Visual Growth Reduction (%) 21 Days After Application ECHSS
[13] = LEFSS: sprangletop (Leptochloa chinensis, Leptochloa dubia), 35 g ai/ha, read-out: Visual Growth Reduction (%) 21 Days After Application LEFSS
[14] = LEFSS: sprangletop (Leptochloa chinensis, Leptochloa dubia), 70 g ai/ha, read-out: Visual Growth Reduction (%) 21 Days After Application LEFSS
[15] = ORYSS: Oryza sativa, 35 g ai/ha, read-out: Visual Growth Reduction (%) 21 Days After Application ORYSS
[16] = ORYSS: Oryza sativa, 70 g ai/ha, read-out: Visual Growth Reduction (%) 21 Days After Application ORYSS
[17] = SCPJU: Japanese bulrush, Scirpus juncoides, 35 g ai/ha, read-out: Visual Growth Reduction (%) 21 Days After Application SCPJU
[18] = SCPJU: Japanese bulrush, Scirpus juncoides, 70 g ai/ha, read-out: Visual Growth Reduction (%) 21 Days After Application SCPJU
[19] = SEBEX: hemp sesbania, Sesbania exaltata, 35 g ai/ha, read-out: Visual Growth Reduction (%) 21 Days After Application SEBEX
[20] = SEBEX: hemp sesbania, Sesbania exaltata, 70 g ai/ha, read-out: Visual Growth Reduction (%) 21 Days After Application SEBEX

SMILES	GR50 BRAPP [1] [g ai/ha]	GR80 BRAPP [1] [g ai/ha]	GR50 CYPSS [2] [g ai/ha]	GR80 CYPSS [2] [g ai/ha]	GR50 ECHSS [3] [g ai/ha]	GR80 ECHSS [3] [g ai/ha]	GR50 LEFSS [4] [g ai/ha]	GR80 LEFSS [4] [g ai/ha]	GR20 ORYSS [g ai/ha]	GR50 SCPJU [5] [g ai/ha]	GR80 SCPJU [5] [g ai/ha]	GR50 SEBEX [6] [g ai/ha]	GR80 SEBEX [6] [g ai/ha]	pest or weed control at 35 g/ha [7] [%]	pest or weed control at 70 g/ha [8] [%]	pest or weed control at 35 g/ha [9] [%]	pest or weed control at 70 g/ha [10] [%]	pest or weed control at 35 g/ha [11] [%]	pest or weed control at 70 g/ha [12] [%]	pest or weed control at 35 g/ha [13] [%]	also measured
COc1c(N)nc(-c2cc(F)c(Br)cc2F)nc1C(=O)O [Compound 11]	13	44	1	1	11	25	175	463	25	1	1	3	7	60 to 74	85 to 94	95 to 100	95 to 100	85 to 94	95 to 100	0 to 29	pest or weed control at 70 g/ha [14]: 0 to 29%; pest or weed control at 35 g/ha [15]: 30 to 44%; pest or weed control at 70 g/ha [16]: 45 to 59%; pest or weed control at 35 g/ha [17]: 95 to 100%; pest or weed control at 70 g/ha [18]: 95 to 100%; pest or weed control at 35 g/ha [19]: 95 to 100%; pest or weed control at 70 g/ha [20]: 95 to 100%
COC(=O)c1nc(-c2ccc(Br)cc2)c(Cl)c(N)c1Cl [Compound 47]	>70	>70	1	3	>70	>70	>70	>70	>70	1	1	1	1	30 to 44	30 to 44	95 to 100	95 to 100	30 to 44	0 to 29	75 to 84	pest or weed control at 70 g/ha [14]: 0 to 29%; pest or weed control at 35 g/ha [15]: 0 to 29%; pest or weed control at 70 g/ha [16]: 0 to 29%; pest or weed control at 35 g/ha [17]: 95 to 100%; pest or weed control at 70 g/ha [18]: 95 to 100%; pest or weed control at 35 g/ha [19]: 95 to 100%; pest or weed control at 70 g/ha [20]: 95 to 100%
COC(=O)c1nc(-c2ccc(C(F)(F)F)c(F)c2)c(Cl)c(N)c1Cl [Compound 58]	>70	>70	4	8	>70	>70	>70	>70	>70	5	8	2	4	–	–	–	–	–	–	–	Visual Growth Reduction (%) 21 Days After Application BRAPP (BRAPP: broadleaf signalgrass, Brachiaria platyphylla, 35 g ai/ha): G (0-29); Visual Growth Reduction (%) 21 Days After Application BRAPP (BRAPP: broadleaf signalgrass, Brachiaria platyphylla, 70 g ai/ha): G (0-29); Visual Growth Reduction (%) 21 Days After Application CYPSS (CYPSS: sedge (Cyperus difformis, esculentus, iria), 35 g ai/ha): A (95-100); Visual Growth Reduction (%) 21 Days After Application CYPSS (CYPSS: sedge (Cyperus difformis, esculentus, iria), 70 g ai/ha): A (95-100); Visual Growth Reduction (%) 21 Days After Application ECHSS (ECHSS: barnyardgrass (Echinochloa crus-galli), junglerice (Echinochloa colonum), 35 g ai/ha): G (0-29); Visual Growth Reduction (%) 21 Days After Application ECHSS (ECHSS: barnyardgrass (Echinochloa crus-galli), junglerice (Echinochloa colonum), 70 g ai/ha): G (0-29); Visual Growth Reduction (%) 21 Days After Application LEFSS (LEFSS: sprangletop (Leptochloa chinensis, Leptochloa dubia), 35 g ai/ha): G (0-29); Visual Growth Reduction (%) 21 Days After Application LEFSS (LEFSS: sprangletop (Leptochloa chinensis, Leptochloa dubia), 70 g ai/ha): E (45-59); Visual Growth Reduction (%) 21 Days After Application ORYSS (ORYSS: Oryza sativa, 35 g ai/ha): G (0-29); Visual Growth Reduction (%) 21 Days After Application ORYSS (ORYSS: Oryza sativa, 70 g ai/ha): G (0-29); Visual Growth Reduction (%) 21 Days After Application SCPJU (SCPJU: Japanese bulrush, Scirpus juncoides, 35 g ai/ha): A (95-100); Visual Growth Reduction (%) 21 Days After Application SCPJU (SCPJU: Japanese bulrush, Scirpus juncoides, 70 g ai/ha): A (95-100); Visual Growth Reduction (%) 21 Days After Application SEBEX (SEBEX: hemp sesbania, Sesbania exaltata, 35 g ai/ha): A (95-100); Visual Growth Reduction (%) 21 Days After Application SEBEX (SEBEX: hemp sesbania, Sesbania exaltata, 70 g ai/ha): A (95-100)
Nc1cc(-c2ccc(Br)cc2F)nc(C(=O)O)c1Cl [Compound 74]	1	5	5	10	1	1	6	13	4	1	1	1	1	95 to 100	95 to 100	95 to 100	95 to 100	95 to 100	95 to 100	95 to 100	pest or weed control at 70 g/ha [14]: 95 to 100%; pest or weed control at 35 g/ha [15]: 60 to 74%; pest or weed control at 70 g/ha [16]: 60 to 74%; pest or weed control at 35 g/ha [17]: 95 to 100%; pest or weed control at 70 g/ha [18]: 95 to 100%; pest or weed control at 35 g/ha [19]: 95 to 100%; pest or weed control at 70 g/ha [20]: 95 to 100%

— US9113629B2, “4-amino-6-(4-substituted-phenyl)-picolinates and 6-amino-2-(4-substituted-phenyl)-pyrimidine-4-carboxylates and their use as herbicides” (DOW AGROSCIENCES LLC, priority 2013, dated 2015)
